Source: US10227323B2, “Glucosylceramide synthase inhibitors for the treatment of diseases” (BIOMARIN PHARMACEUTICAL INC., priority 2013, dated 2019)

target: T1, GCS (Canis lupus familiaris, UniProt A0A8I3MXG6); assay: Assay 1: GCS Enzymatic Assay (MDCK cell lysate, C6-NBD-Ceramide, LC/MS); type: biochemical, canine; settings: Table 2; data without asterisk; read-out: IC50 (nM) generated from Assay 1
T1 sequence (A0A8I3MXG6 1-394): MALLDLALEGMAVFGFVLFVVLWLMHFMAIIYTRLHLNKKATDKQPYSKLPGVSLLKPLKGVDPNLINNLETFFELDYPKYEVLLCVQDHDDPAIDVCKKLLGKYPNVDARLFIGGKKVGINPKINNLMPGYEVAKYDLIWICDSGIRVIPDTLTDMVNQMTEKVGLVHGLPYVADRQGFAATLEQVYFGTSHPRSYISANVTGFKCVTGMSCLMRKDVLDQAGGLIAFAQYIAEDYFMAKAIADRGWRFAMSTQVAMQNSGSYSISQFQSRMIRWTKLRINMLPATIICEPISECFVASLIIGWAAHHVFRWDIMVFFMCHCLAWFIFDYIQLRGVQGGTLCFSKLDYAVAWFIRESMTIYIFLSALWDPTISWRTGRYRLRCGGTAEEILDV
Procedure, shortened: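 LC/MS/MS measurement of glucosylceramide and NBD-ceramide after a 1 h, 37 °C reaction with 100 μM UDP-glucose and 10 μM C6-NBD-ceramide gave IC50s or percent inhibition.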

IC50 [nM]	Structure (SMILES)
< 50	O=C(N[C@H](CN1CCC1)[C@H](O)c1cc(F)c2c(c1)OCCO2)C(=O)c1ccc(-c2ccc3c(cnn3C3CC3)c2)cc1 [Example 278, N-((1R,2R)-3-(azetidin-1-yl)-1-(8-fluoro-2,3-dihydrobenzo[b][1,4]dioxin-6-yl)-1-hydroxypropan-2-yl)-2-(4-(1-cyclopropyl-1H-indazol-5-yl)phenyl)-2-oxoacetamide]
< 50	Cn1ncc2cc(-c3ccc(C(=O)C(=O)N[C@H](CN4CCC4)[C@H](O)c4ccc(OC5CC5)c(Cl)c4)cc3)ccc21 [Example 279, N-((1R,2R)-3-(azetidin-1-yl)-1-(3-chloro-4-cyclopropoxyphenyl)-1-hydroxypropan-2-yl)-2-(4-(1-methyl-1H-indazol-5-yl)phenyl)-2-oxoacetamide]
< 50	O=C(N[C@H](CN1CCCC1)[C@H](O)c1cc(F)c2c(c1)OCCO2)C(=O)c1ccc(-c2ccc3cnoc3c2)cc1 [Example 280, 2-(4-(benzo[d]isoxazol-6-yl)phenyl)-N-((1R,2R)-1-(8-fluoro-2,3-dihydrobenzo[b][1,4]dioxin-6-yl)-1-hydroxy-3-(pyrrolidin-1-yl)propan-2-yl)-2-oxoacetamide]
< 50	O=C(N[C@H](CN1CCCC1)[C@H](O)c1ccc(OC2CC2)c(Cl)c1)C(=O)c1ccc(-c2ccc3cnn(C4CC4)c3c2)cc1 [Example 281, N-((1R,2R)-1-(3-chloro-4-cyclopropoxyphenyl)-1-hydroxy-3-(pyrrolidin-1-yl)propan-2-yl)-2-(4-(1-cyclopropyl-1H-indazol-6-yl)phenyl)-2-oxoacetamide]
< 50	O=C(N[C@H](CN1CCCC1)[C@H](O)c1cc(F)c2c(c1)OCCO2)C(=O)c1ccc(-c2ccc3cnn(C4CC4)c3c2)cc1 [Example 282, 2-(4-(1-cyclopropyl-1H-indazol-6-yl)phenyl)-N-((1R,2R)-1-(8-fluoro-2,3-dihydrobenzo[b][1,4]dioxin-6-yl)-1-hydroxy-3-(pyrrolidin-1-yl)propan-2-yl)-2-oxoacetamide]
< 50	O=C(N[C@H](CN1CCC1)[C@H](O)c1cc(F)c2c(c1)OCCO2)C(=O)c1ccc(-c2ccc3cnn(C4CC4)c3c2)cc1 [Example 283, N-((1R,2R)-3-(azetidin-1-yl)-1-(8-fluoro-2,3-dihydrobenzo[b][1,4]dioxin-6-yl)-1-hydroxypropan-2-yl)-2-(4-(1-cyclopropyl-1H-indazol-6-yl)phenyl)-2-oxoacetamide]
< 50	O=C(N[C@H](CN1CCCC1)[C@H](O)c1ccc(OC2CC2)c(Cl)c1)C(=O)c1ccc(-c2ccc3cn(C4CC4)nc3c2)cc1 [Example 284, N-((1R,2R)-1-(3-chloro-4-cyclopropoxyphenyl)-1-hydroxy-3-(pyrrolidin-1-yl)propan-2-yl)-2-(4-(2-cyclopropyl-2H-indazol-6-yl)phenyl)-2-oxoacetamide]
< 50	O=C(N[C@H](CN1CCC1)[C@H](O)c1cc(Cl)c2c(c1)OCCO2)C(=O)c1ccc(-c2ccc3c(cnn3C3CC3)c2)cc1 [Example 285, N-((1R,2R)-3-(azetidin-1-yl)-1-(8-chloro-2,3-dihydrobenzo[b][1,4]dioxin-6-yl)-1-hydroxypropan-2-yl)-2-(4-(1-cyclopropyl-1H-indazol-5-yl)phenyl)-2-oxoacetamide]
50 to 5000	O=C(N[C@H](CN1CCCC1)[C@H](O)c1cc2c(c(C(F)(F)F)c1)OCCO2)C(=O)c1ccc(-c2ccc(F)cc2)cc1 [Example 286, 2-(4′-fluoro-[1,1′-biphenyl]-4-yl)-N-((1R,2R)-1-hydroxy-3-(pyrrolidin-1-yl)-1-(8-(trifluoromethyl)-2,3-dihydrobenzo[b][1,4]dioxin-6-yl)propan-2-yl)-2-oxoacetamide]
< 50	O=C(N[C@H](CN1CCCC1)[C@H](O)c1ccc(OC2CC2)c(Cl)c1)C(=O)c1ccc(-c2ccc(F)cc2)nc1 [Example 287, N-((1R,2R)-1-(3-chloro-4-cyclopropoxyphenyl)-1-hydroxy-3-(pyrrolidin-1-yl)propan-2-yl)-2-(6-(4-fluorophenyl)pyridin-3-yl)-2-oxoacetamide]
< 50	O=C(N[C@H](CN1CCCC1)[C@H](O)c1ccc(OC2CC2)c(Cl)c1)C(=O)c1ccc2c(cnn2Cc2ccc(F)cc2)c1 [Example 288, N-((1R,2R)-1-(3-chloro-4-cyclopropoxyphenyl)-1-hydroxy-3-(pyrrolidin-1-yl)propan-2-yl)-2-(1-(4-fluorobenzyl)-1H-indazol-5-yl)-2-oxoacetamide]
< 50	O=C(N[C@H](CN1CCCC1)[C@H](O)c1cc(F)c2c(c1)OCCO2)C(=O)c1ccc2c(cnn2Cc2ccc(F)cc2)c1 [Example 289, N-((1R,2R)-1-(8-fluoro-2,3-dihydrobenzo[b][1,4]dioxin-6-yl)-1-hydroxy-3-(pyrrolidin-1-yl)propan-2-yl)-2-(1-(4-fluorobenzyl)-1H-indazol-5-yl)-2-oxoacetamide]
< 50	O=C(N[C@H](CN1CCCC1)[C@H](O)c1cc(F)c2c(c1)OCCO2)C(=O)c1ccc(-c2ccc3oncc3c2)cc1 [Example 290, 2-(4-(benzo[d]isoxazol-5-yl)phenyl)-N-((1R,2R)-1-(8-fluoro-2,3-dihydrobenzo[b][1,4]dioxin-6-yl)-1-hydroxy-3-(pyrrolidin-1-yl)propan-2-yl)-2-oxoacetamide]
< 50	O=C(N[C@H](CN1CCCC1)[C@H](O)c1ccc(OC2CC2)c(F)c1)C(=O)c1cc2ccc(Cl)cc2s1 [Example 292, 2-(6-chlorobenzo[b]thiophen-2-yl)-N-((1R,2R)-1-(4-cyclopropoxy-3-fluorophenyl)-1-hydroxy-3-(pyrrolidin-1-yl)propan-2-yl)-2-oxoacetamide]
< 50	CC(C)(C)c1ccc(-c2ccc(C(=O)C(=O)N[C@H](CN3CCC3)[C@H](O)c3cc(F)c4c(c3)OCCO4)cc2)cc1 [Example 293, N-((1R,2R)-3-(azetidin-1-yl)-1-(8-fluoro-2,3-dihydrobenzo[b][1,4]dioxin-6-yl)-1-hydroxypropan-2-yl)-2-(4′-(tert-butyl)-[1,1′-biphenyl]-4-yl)-2-oxoacetamide]
< 50	CC(C)(C)c1ccc(-c2ccc(C(=O)C(=O)N[C@H](CN3CCCC3)[C@H](O)c3cc(F)c4c(c3)OCCO4)cc2)cc1 [Example 294, 2-(4′-(tert-butyl)-[1,1′-biphenyl]-4-yl)-N-((1R,2R)-1-(8-fluoro-2,3-dihydrobenzo[b][1,4]dioxin-6-yl)-1-hydroxy-3-(pyrrolidin-1-yl)propan-2-yl)-2-oxoacetamide]
50 to 5000	Cc1cc(F)ccc1-c1ccc(C(=O)C(=O)N[C@H](CN2CCCC2)[C@H](O)c2ccc(OC3CC3)c(Cl)c2)cc1 [Example 295, N-((1R,2R)-1-(3-chloro-4-cyclopropoxyphenyl)-1-hydroxy-3-(pyrrolidin-1-yl)propan-2-yl)-2-(4′-fluoro-2′-methyl-[1,1′-biphenyl]-4-yl)-2-oxoacetamide]

Structure (SMILES)	IC50 [nM]
CC(C)(C)Oc1ccc([C@@H](O)[C@@H](CN2CCCC2)NC(=O)C(=O)c2ccc(-c3ccc(F)cc3)cc2)cc1Cl [Example 291, N-((1R,2R)-1-(4-(tert-butoxy)-3-chlorophenyl)-1-hydroxy-3-(pyrrolidin-1-yl)propan-2-yl)-2-(4′-fluoro-[1,1′-biphenyl]-4-yl)-2-oxoacetamide]	50 to 5000
